Measured values from PMC3620930 (Molecular oral microbiology, 2012).

Tests used:
Assay in all cases: inhibition of amidolytic activity
Format in all cases: biochemical
Lys-gingipain = Lys-gingipain (Porphyromonas gingivalis, UniProt P72197)
RgpB = RgpB (Porphyromonas gingivalis, UniProt P95493)
HRgpA = HRgpA (Porphyromonas gingivalis, UniProt P28784)

SMILES: N=C(N)c1ccc(CC2CCCC(Cc3ccc(C(=N)N)cc3)C2=O)cc1 (stereo not drawn) [2,6-bis-(4-amidinobenzyl)-cyclohexanone]
- Ki (Lys-gingipain): > 1000 µM
- Ki (RgpB): 0.51 µM
- Ki (HRgpA): 2.9 µM

SMILES: N=C(N)c1ccccc1 [benzamidine]
- Ki (Lys-gingipain): > 1000 µM
- Ki (RgpB): 277 µM
- Ki (HRgpA): 536 µM

SMILES: N=C(N)c1ccc(OCCCCCOc2ccc(C(=N)N)cc2)cc1 [pentamidine]
- Ki (Lys-gingipain): > 1000 µM
- Ki (RgpB): 40.3 µM
- Ki (HRgpA): 107 µM
